Where “and” joins values, the source holds several entries; their conditions need not be identical. Identical values can stand only once. Entries after “also recorded” stand apart in the source; their conditions may differ. Like-named read-outs stand apart in the source and are kept apart here. Square brackets hold non-standard residues; d marks the D form. Peptide text beside a SMILES is read from it. * marks the point of attachment. pY = N[CH](Cc1ccc(OP(=O)(O)O)cc1)C(=O)O; Hexanoyl = CCCCCC(=O)*; Ahx = NCCCCCC(=O)O
Legend:
[1] = test system: Rat primary cortical neuron cultures; conditions: LPS 24 h
[2] = test system: Rat primary cortical neuron cultures; assay: Neuroprotection of rat cortical neurons against LPS challenge (Cell Titer-Glo); conditions: at at least one dose tested
[3] = test system: male CD-1 mice; assay: T-maze spontaneous alternation, LPS-induced cognitive deficit; type: in vivo, mouse; conditions: for Spontaneous alternation (%) Mean: LPS 250 μg/kg i.p.; for Recovery (%): saline/vehicle = 100%, LPS/vehicle = 0%; for Reversal of LPS-induced cognitive deficit in T-maze (result in words): ANOVA, Fisher's PLSD, p<0.05, doses as in the value
Description: Encephalitis refers to inflammation of the brain that may result in brain swelling fever, headache, confusion, and seizures. The source of neuroinflammation can vary widely, including due to viral, bacterial, parasitic, or fungal infection or due to autoimmune diseases. Lipopolysaccharide (LPS) is a bacterial endotoxin that induces an intense neuroinflammatory reaction and has been associated with cognitive decline. The ability of Compound A19 to reverse cognitive decline induced by LPS in a mouse model of encephalitis was studied using a T-maze assay. In a separate substantially similar assay, Compounds 1a and 5a were also assessed.
Spontaneous and continuous alternation is the innate tendency of rodents to alternate free choices in a T-maze (T-CAT) over a series of successive runs. This sequential procedure relies on working memory and is sensitive to various pharmacological manipulations affecting memory processes. The present studies were conducted to evaluate the abilities of Compound A19, Compound 1a and Compound 5a to reverse LPS-induced cognitive deficit in the T-maze assay.
Compound A19 was dissolved in 0.9% NaCl (saline) and vortexed periodically until complete dissolution and with the pH adjusted between 7.4 and 7.8. Compound A19 was used in concentrations of 0.125, 0.1, 0.05, 0.025 and 0.0125 mg/ml which when given in a volume of 10 ml/kg result in doses of 1.25, 1, 0.5, 0.25 and 0.125 mg/kg, respectively. Compound 1a was dissolved at 160 mg/ml in 100% DMSO and vortexed until complete dissolution. Then the above stock solution was diluted in 20% PEG-400 and 78% 0.9% NaCl, whereby the stock solution comprised 2% of the final solution. Compound 1a was used in concentrations of 0.05, 0.2, 0.8, 1.6 and 3.2 mg/ml which when given in a volume of 10 ml/kg result in doses of 0.5, 2, 8, 16 and 32 mg/kg, respectively. Compound 5a was dissolved at 100 mg/ml in 100% DMSO and vortexed until complete dissolution. Then the above stock solution was diluted in 20% PEG-400 and 78% 0.9% NaCl, whereby the stock solution comprised 2% of the final solution. Compound 5a was used in concentrations of 0.125, 0.25, 0.5, 1 and 2 mg/ml which when given in a volume of 10 ml/kg result in doses of 1.25, 2.5, 5, 10 and 20 mg/kg, respectively.
Memantine was dissolved in saline. Memantine was used in concentration of 0.1 and 0.01 mg/ml, which when given in a volume of 10 ml/kg result in a dose of 1 and 0.1 mg/kg, respectively. Memantine is approved for symptomatic treatment of Alzheimer's disease was used as a reference compound.
LPS was dissolved in saline and prepared at a concentration of 0.0125 mg/ml and given intraperitoneally (i.p.) at a dosage volume of 20 ml/kg to yield a dose of 0.25 mg/kg ([…]).
Four to five weeks old male CD-1 mice (Janvier; Le Genest St Isle - France) were used for the study.
LPS was injected i.p. 2 weeks prior the T-maze trial. Compound 1a was tested at doses of 0.5, 2, 8, 16, and 32 mg/kg administered orally (p.o.) for 14 days with last treatment given 60 min before the T-maze trial. Compound 5a was tested at the doses of 1.25, 2.5, 5, 10, and 20 mg/kg administered orally (p.o.) for 14 days with last treatment given 60 min before the T-maze trial. LPS was injected i.p. 2 weeks prior the T-maze trial.
The T-maze apparatus was made of gray Plexiglas with a main stem (55 cm long×10 cm wide×20 cm high) and two arms (30 cm long×10 cm wide×20 cm high) positioned at a 90-degree angle relative to the main stem. A start box (15 cm long×10 cm wide) was separated from the main stem by a guillotine door. Horizontal doors were also provided to close specific arms during the force choice alternation task.
The experimental protocol consisted of a single session, which started with one “forced-choice” trial, followed by 14 “free-choice” trials. In the “forced-choice” trial, the animal was confined 5 seconds in the start arm and was then released while either the left or right goal arm was blocked by a horizontal door. […]

[4] = test system: Prp-TDP43^A315T mice; type: in vivo
Description: Extranuclear accumulation of TDP-43 protein is a pathological hallmark of a number of neurological diseases. […] Male Prp-TDP43^A315T mice (N=10 mice per group) at 3 weeks of age were administered daily treatments of test compounds. Compound A19 was administered via subcutaneous injection, and Compound 5a and Compound 6a were administered via oral gavage. After 2 months of treatment, plasma samples were collected for cytokine quantification. […] Plasma IL-6 and TNF-α cytokine expression levels were determined using the ELISA method. The submandibular vein was punctured with a lancet and a blood drop was collected directly on a microtube containing EDTA as anticoagulant. Samples were centrifuged for 15 minutes at 1000×g at 4° C. within 20 minutes of collection. 20 μl of plasma supernatant was stored at −20° C. before ELISA analysis.
Plasma was diluted at 1:10 in sterile PBS, and IL-6 and TNF-α quantification was performed in duplicate for each animal using 10 μl of sample per well in 96-well plates using the ELISA method (IL-6: Signa-Aldrich Cat #RAB0308, TNF-α: Sigma-Aldrich Cat #RAB0477). Statistical analysis was carried out by 2-way ANOVA with Dunnett's multiple comparisons post-test with compound-treated samples compared to vehicle-treated samples.

[5] = test system: Rat primary cortical neuron cultures; assay: Neuroprotection of rat primary cortical neurons against neurotoxic insults (Cell Titer-Glo viability); type: cell-based; conditions: for Statistical significance vs. insult control (cell viability): Positive Control MK-801 (1 uM)
Description: HGF/MET signaling activation is expected to protect cells, including neurons, from cell death. […] Hydrogen peroxide (H2O2) treatment produces toxic oxidative stress. Bacteria-derived lipopolysaccharide (LPS) treatment induces inflammatory cell death. Treatment with excess glutamate (Glut) produces excitotoxicity in neuron cultures. Treatment with 1-methyl-4-phenylpyridinium (MPP^+) causes cell death by inhibition of mitochondrial function.
Cells were then subjected to individual conditional insults for 24 hours at the following concentrations: H2O2 at 1 uM, LPS at 1 uM, glutamate at 25 uM, or MPP+ at 500 uM. All treatments contained recombinant human HGF (R&D Systems) at a concentration of 5 ng/ml. MK-801 (Dizocilpine) is a pore blocker of the N-Methyl-D-aspartate (NMDA) receptor, a glutamate receptor, and was used as a positive control.
Data was normalized to DMSO+HGF control set at 100% cell viability.
Data are reported as statistical significance vs. insult control, with NS=not significant, +=p<0.05, ++=p<0.01, and +++=p<0.001.

[6] = 2 months of treatment, doses as in the value
[7] = insult alone 24 h (H2O2 1 uM, Glutamate 25 uM, LPS 1 uM, MPP+ 500 uM), Compound 1a study, Table 2
[8] = insult alone (H2O2 1 uM, Glutamate 25 uM, LPS 1 uM, MPP+ 500 uM), A19 active metabolite study, Table 3

CCC(C)CN1CC2N(C(=O)c3ccc(OC(F)F)cc3)CCC(=O)N2[C@@H](C)C1=O (some centres unmarked) [Compound 2a]
Significance of neuroprotection vs 1 uM LPS ([1]; dose 0.1 nM): +++ (+++ indicates p<0.001)
Significance of neuroprotection vs 1 uM LPS ([1]; dose 1 nM): +++ (+++ indicates p<0.001)
Significance of neuroprotection vs 1 uM LPS ([1]; dose 10 nM): +++ (+++ indicates p<0.001)
Significance of neuroprotection vs 1 uM LPS ([1]; dose 100 nM): +++ (+++ indicates p<0.001)
Significance of neuroprotection vs 1 uM LPS ([1]; dose 1 μM): +++ (+++ indicates p<0.001)
Protection of primary neurons from LPS-stimulated inflammatory toxicity (in words) [2]: protected primary neurons from LPS-stimulated inflammatory toxicity

CCCCCC(=O)NC(Cc1ccc(OP(=O)(O)O)cc1)C(=O)NC(C(=O)NCCCCCC(N)=O)C(C)CC (centres unmarked) [Compound A19] (Hexanoyl-[pY]-Ile-[Ahx]-NH2; configuration not given here)
Spontaneous alternation (%) Mean ([3]; A19 0.125 mg/kg s.c. daily 14 days, 0.125 mg/kg): 42% and 42.1%
Recovery (%) ([3]; A19 0.125 mg/kg s.c., 0.125 mg/kg): -12%
Spontaneous alternation (%) Mean ([3]; A19 0.25 mg/kg s.c. daily 14 days, 0.25 mg/kg): 60%
Recovery (%) ([3]; A19 0.25 mg/kg s.c.): 62%
Spontaneous alternation (%) Mean ([3]; A19 0.5 mg/kg s.c. daily 14 days, 0.5 mg/kg): 64% and 64.3%
Recovery (%) ([3]; A19 0.5 mg/kg s.c.): 79%
Spontaneous alternation (%) Mean ([3]; A19 1 mg/kg s.c. daily 14 days, 1 mg/kg): 61% and 60.7%
Recovery (%) ([3]; A19 1 mg/kg s.c.): 65%
Spontaneous alternation (%) Mean ([3]; A19 1.25 mg/kg s.c. daily 14 days, 1.25 mg/kg): 61% and 60.7%
Recovery (%) ([3]; A19 1.25 mg/kg s.c., 1.25 mg/kg): 58%
Reversal of LPS-induced cognitive deficit in T-maze (result in words) [3]: significant at all doses except at 0.125 mg/kg; also recorded: reversed the LPS-induced cognitive disruption
Significant decrease in plasma cytokine expression after 2 months of treatment: IL-6 ([4]; 0.005 mg/kg SC daily): ++++ (++++ = p < 0.0001)
Significant decrease in plasma cytokine expression after 2 months of treatment: TNF-α ([4]; 0.005 mg/kg SC daily): ++++ (++++ = p < 0.0001)
Significant decrease in plasma cytokine expression after 2 months of treatment: TNF-α ([4]; 0.01 mg/kg SC daily): + (+ = p < 0.05)
Significant decrease in plasma cytokine expression after 2 months of treatment: IL-6 ([4]; 0.03 mg/kg SC daily): + (+ = p < 0.05)
Plasma IL-6 expression (result in words) [4, 6]: significantly reduced TL-6 expression at doses of 0.005, 0.01, and 0.03 mg/kg
Plasma TNF-α expression (result in words) [4, 6]: significantly reduced TNF-α expression at 0.005 and 0.01 mg/kg

N[C@@H](CCC(=O)O)C(=O)O [Glutamate, glutamate, reference compound]
Insult effect (% viability vs vehicle) [5, 7]: 49.55%
Insult effect (% viability vs vehicle) [5, 8]: 54.4%

C[n+]1ccc(-c2ccccc2)cc1 [MPP+, 1-methyl-4-phenylpyridinium, reference compound]
Insult effect (% viability vs vehicle) [5, 7]: 49.85%
Insult effect (% viability vs vehicle) [5, 8]: 54.3%

C[C@]12N[C@H](Cc3ccccc31)c1ccccc12 [MK-801, Dizocilpine, reference compound]
Statistical significance vs. insult control (cell viability) ([5]; Glutamate (25 uM) insult): +++ (+++=p<0.001)
Statistical significance vs. insult control (cell viability) ([5]; H2O2 (1 uM) insult): +++ (+++=p<0.001)
Statistical significance vs. insult control (cell viability) ([5]; LPS (1 uM) insult): +++ (+++=p<0.001)
Statistical significance vs. insult control (cell viability) ([5]; MPP+ (500 uM) insult): +++ (+++=p<0.001)

OO [Compound H2O2, Hydrogen peroxide, reference compound]
Insult effect (% viability vs vehicle) [5, 7]: 64.23%
Insult effect (% viability vs vehicle) [5, 8]: 59.35%

CC12CC3CC(C)(C1)CC(N)(C3)C2 [Memantine, reference compound]
Reversal of LPS-induced cognitive deficit in T-maze (result in words) [3]: significant at both doses
Spontaneous alternation (%) Mean ([3]; Memantine 0.1 mg/kg i.p. daily 14 days): 64% and 63.6%
Recovery (%) ([3]; Memantine 0.1 mg/kg i.p.): 76%
Spontaneous alternation (%) Mean ([3]; Memantine 1 mg/kg i.p. daily 14 days): 54% and 54.3%
Recovery (%) ([3]; Memantine 1 mg/kg i.p.): 38%

Reference: patent US20250275976A1, “Methods of Treating Neuroinflammatory Conditions” (Athira Pharma, Inc., priority 2022, published 2025)
